Key:
VZV = assay: Antiviral activity 2, plaque formation in HEL cells; format: cell-based; conditions: Human alphaherpesvirus 3, 72 h, 3 days
Procedure: (§1) An Assay Method for Antiviral Activity 2
(§2) The HEL cells were sowed on a 48-well plate and then cultured overnight. The culture supernatant was removed, and 100 μl of 2% FBS-DMEM containing 40 Plaque-forming units of HSV-1, HSV-2, VZV, or CMV was added. A viral solution Was removed 1 hour later, and 500 μl of 2% FBS-DMEM containing 0.5% methylcellulose comprising 50, 25, 12.5, 6.3, 3.2, or 1.6 μM of the test compound was added. In this case, a substance to which 2% FBS-DMEM containing 0.5% methylcellulose not comprising any test compound had been added was designated as a control. In the case of HSV-1, HSV-2, or VZV, incubation was carried out in the presence of 5% CO2 at 37° C. for 3 days. In the case of CMV, incubation was carried out under the same conditions for 14 days. After they were immobilized on formalin and stained with bromophenol blue, the amount of plaque formed was counted, and the ratio of plaque formation of the drug-containing reaction system relative to the control was determined. The concentration of the drug with which the ratio of plaque formation reaches 50% was calculated and determined to be IC50. Concerning HSV-1, an aciclovir-resistant thymidine kinase variant and a DNA polymerase variant were examined in addition to a general aciclovir-sensitive strain.

Vero cells = assay: Cytotoxicity, Vero cells, Alamar Blue; format: cell-based; conditions: 25 μM, 20 hours
Summary of the method: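 Overnight-seeded Vero cells were exposed to 25 μM compound in 2% FBS-DMEM for 20 h at 37 °C, 5% CO2. Alamar Blue was then added for about 6 h. The absorbance ratio relative to compound-free control gave the living-cell ratio.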

[1] = test system: HSV1 Thimidine kinase variant; assay: Antiviral activity 2, plaque formation in HEL cells; format: cell-based, HSV-1; conditions: Human alphaherpesvirus 1, HEL, 72 h, read-out: Antiviral activity: IC50, HSV1 Thimidine kinase variant
Procedure: as §1, §2

[2] = test system: HSV1 DNA polymerase variant; assay: as above; format: cell-based, HSV-1; conditions: Human alphaherpesvirus 1, HEL, 72 h, read-out: Antiviral activity: IC50, HSV1 DNA polymerase variant
Procedure: as §1, §2

HSV1 Sensitive strain = assay: as above; format: cell-based, HSV-1; conditions: Human alphaherpesvirus 1, 72 h, 3 days
Procedure: as §1, §2

HSV2 = assay: as above; format: cell-based, HSV-2; conditions: Human alphaherpesvirus 2, 72 h, 3 days
Procedure: as §1, §2

HSV-1 [3] = assay: Antiviral activity, HSV-1 in Vero cells, plaque method; format: cell-based; conditions: Human alphaherpesvirus 1, 20 hours, 90% inhibition of plaque formation
Summary of the method: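 HSV-1 (50,000 pfu in 2% FBS-DMEM) was added to Vero cells and removed, then the compound was applied in 2% FBS-DMEM for 20 h at 37° C, 5% CO2. After a freeze-thaw, virus yield in the medium was titred by plaque assay. EC90 is the concentration giving 90% plaque reduction versus the compound-free control.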

HSV-1 [4] = assay: Inhibition of virus multiplication through combined use, plaque formation in Vero cells; format: cell-based; conditions: 3 days
Procedure: Activity of Inhibiting Virus Multiplication Through Combined use
The Vero cells were sowed on a 48-well plate and then cultured overnight. The culture supernatant was removed, and 100 μl of 2% FBS-DMEM containing 40 Plaque-forming units of HSV-1 was added. A viral solution was removed 1 hour later, And 500 μl of 2% FBS-DMEM containing 0.5% methylcellulose comprising the test Compound was added. In this case, a substance to which 2% FBS-DMEM containing 0.5% methylcellulose not comprising any test compound had been added was designated as a control. They were incubated in the presence of 5% CO2 at 37° C. for 3 days. After they were immobilized on formalin and stained with bromophenol blue, the Amount of plaque formed was counted, and the ratio of plaque formation of the drug-containing reaction system relative to the control was determined. Examination was carried out using the Compound No.18 in combination with aciclovir, the Compound No. 18 in combination with penciclovir, and the Compound No.18 in combination with ganciclovir. In this examination, 25, 12.5, 6.3, 3.2, 1.6, or 0 μM of the Compound No. 18 was used, and 3.2, 1.6, 0.8, 0.4, 0.2, or 0 μM of aciclovir, penciclovir, or ganciclovir was used.

HCMV = assay: Antiviral activity 2, plaque formation in HEL cells; format: cell-based, CMV; conditions: Human betaherpesvirus 5, 336 h, 14 days
Procedure: as §1, §2

Cc1c(NC(=O)OC(C)(C)C)ccc2nc(NC(C)(C)C(=O)N(C)CCc3ccccn3)oc(=O)c12 [Compound No.18, (5-methyl-2-{1-methyl-1-[methyl-(2-pyridin-2-yl-ethyl)-carbamoyl]-ethylamino}-4-oxo-4H-benzo[d][1,3]oxazin-6-yl)-carbamic Acid Tert-Butyl Ester]
IC50 (VZV): 25 µM | Cell viability (% of control) (Vero cells): 101.0% | IC50 [1]: 22.5 µM | IC50 [2]: 17.1 µM | IC50 (HSV1 Sensitive strain): 10 µM | IC50 (HSV2): 12.5 µM | EC90 (HSV-1 [3]): 8.4 µM | Inhibition of multiplication of HSV-1 through combined use (HSV-1 [4]; in combination with aciclovir): synergistically inhibited | Inhibition of multiplication of HSV-1 through combined use (HSV-1 [4]; in combination with ganciclovir): synergistically inhibited | Inhibition of multiplication of HSV-1 through combined use (HSV-1 [4]; in combination with penciclovir): synergistically inhibited | IC50 (HCMV): 11.1 µM

Reference: US20040116420A1 (priority 2001, published 2004)
